Experimental data published in the supplement of paper PMC10307832.

Assays:
Assay in all cases: relative viability (nuclei count vs DMSO), 5 days (fraction); higher = more cells survive
Zosuquidar + Olaparib = compound: O[C@@H](COc1cccc2ncccc12)CN1CCN([C@@H]2c3ccccc3[C@@H]3[C@H](c4ccccc42)C3(F)F)CC1 [Zosuquidar] + O=C(c1cc(Cc2n[nH]c(=O)c3ccccc23)ccc1F)N1CCN(C(=O)C2CC2)CC1 [Olaparib] (partner 8 µM)
In short: (§1)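 Five library-drug doses in √10 steps were combined with a fixed anchor-drug dose, or a single drug was given alone, by pin tool to lung cancer cell lines in 1536-well plates the day after seeding. Nuclei were stained and counted after 5 days. Relative viability is the nuclei count in treated wells over that in vehicle wells, taken as the median of duplicate plates.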

Cabozantinib + OSI-027 = compound: COc1cc2nccc(Oc3ccc(NC(=O)C4(C(=O)Nc5ccc(F)cc5)CC4)cc3)c2cc1OC [Cabozantinib] + COc1cccc2cc(-c3nc([C@H]4CC[C@H](C(=O)O)CC4)n4ncnc(N)c34)[nH]c12 [OSI-027] (partner 0.5 µM)
In short: as §1

Kobe2602 + Decitabine = compound: C1=CC(=CC=C1NC(=S)NNC2=C(C=C(C=C2[N+](=O)[O-])C(F)(F)F)[N+](=O)[O-])F [Kobe2602] + Nc1ncn([C@H]2C[C@H](O)[C@@H](CO)O2)c(=O)n1 [Decitabine] (partner 2 µM)
In short: as §1

[1] = compound: COc1cc2nccc(Oc3ccc(NC(=O)C4(C(=O)Nc5ccc(F)cc5)CC4)cc3)c2cc1OC [Cabozantinib] + CC(=O)c1c(C)c2cnc(Nc3ccc(N4CCNCC4)cn3)nc2n(C2CCCC2)c1=O [Palbociclib] (partner 0.5 µM)
In short: as §1

UMC-11
relative viability (Zosuquidar + Olaparib; first compound 0.01 µM): 0.505
relative viability (Zosuquidar + Olaparib; first compound 0.03162 µM): 0.38
relative viability (Zosuquidar + Olaparib; first compound 0.1 µM): 0.413
relative viability (Zosuquidar + Olaparib; first compound 0.3162 µM): 0.385
relative viability (Zosuquidar + Olaparib; first compound 1 µM): 0.34
relative viability (Cabozantinib + OSI-027; first compound 0.02 µM): 0.45
relative viability (Cabozantinib + OSI-027; first compound 0.06325 µM): 0.49
relative viability (Cabozantinib + OSI-027; first compound 0.2 µM): 0.518
relative viability (Cabozantinib + OSI-027; first compound 0.6325 µM): 0.547
relative viability (Cabozantinib + OSI-027; first compound 2 µM): 0.432
relative viability (Kobe2602 + Decitabine; first compound 0.2 µM): 0.564
relative viability (Kobe2602 + Decitabine; first compound 0.6325 µM): 0.622
relative viability (Kobe2602 + Decitabine; first compound 2 µM): 0.675
relative viability (Kobe2602 + Decitabine; first compound 6.325 µM): 0.466
relative viability (Kobe2602 + Decitabine; first compound 20 µM): 0.652
relative viability ([1]; first compound 0.02 µM): 0.352
relative viability ([1]; first compound 0.06325 µM): 0.324
relative viability ([1]; first compound 0.2 µM): 0.336
relative viability ([1]; first compound 0.6325 µM): 0.312
relative viability ([1]; first compound 2 µM): 0.334
